Structures are written as SMILES. Several values for one entry are separate records, joined by “and”; a condition that tells them apart may be missing. Identical values can stand only once. Inconclusive results and toxic doses are left out.

The test relates to B6C3F1 mice, B16 melanoma ip, median survival T/C. Put plainly: NCI In Vivo Anticancer Drug Screen. Data for tumor model B16 Melanoma (intraperitoneal) in B6C3F1 mice. The following applies: endpoint: median survival time, higher = longer survival. In a few lines:
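Values are T/C ratios: the measurement in treated animals divided by that in vehicle-treated controls, using survival or tumor size in mice carrying transplantable tumors.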

[1] abbreviates: dose: 100.0 mg/kg/injection, schedule: Q01DX009 (ip), vehicle: saline with Tween-80.
Where [2] appears, read: dose: 200.0 mg/kg/injection, schedule: Q01DX009 (ip), vehicle: saline with Tween-80.
Setting [3] is: dose: 25.0 mg/kg/injection, schedule: Q01DX009 (ip), vehicle: saline with Tween-80.
[4] abbreviates: dose: 50.0 mg/kg/injection, schedule: Q01DX009 (ip), vehicle: saline with Tween-80.
The mark [5] stands for this setting: dose: 7.5 mg/kg/injection, schedule: Q01DX001 (ip), vehicle: saline.
Setting [6] is: dose: 30.0 mg/kg/injection, schedule: Q01DX001 (ip), vehicle: saline.
Where [7] appears, read: dose: 60.0 mg/kg/injection, schedule: Q01DX001 (ip), vehicle: saline.

Consider `O=C1N[C@@H]2C(=C[C@H](O)[C@@H](O)[C@H]2O)c2cc3c(c(O)c21)OCO3`, for which the T/C was 115 % of control (dose: 0.62 mg/kg/injection, schedule: Q01DX009 (ip), vehicle: saline with Tween-80); 111 % of control (dose: 1.25 mg/kg/injection, schedule: Q01DX009 (ip), vehicle: saline with Tween-80); 109 % of control (dose: 2.5 mg/kg/injection, schedule: Q01DX009 (ip), vehicle: saline with Tween-80); 123 % of control (dose: 5.0 mg/kg/injection, schedule: Q01DX009 (ip), vehicle: saline with Tween-80).
`C#CCNC1=C(C)C(=O)C2=C(C1=O)[C@H](COC(N)=O)[C@]1(OC)[C@@H]3N[C@@H]3CN21`: the T/C reads like this: (dose: 0.75 mg/kg/injection, schedule: Q01DX009 (ip), vehicle: distilled water + Tween-80) 91 % of control; (dose: 1.5 mg/kg/injection, schedule: Q01DX009 (ip), vehicle: distilled water + Tween-80) 98 % of control; (dose: 6.25 mg/kg/injection, schedule: Q01DX009 (ip), vehicle: distilled water + Tween-80) 241 % of control; (dose: 12.0 mg/kg/injection, schedule: Q01DX009 (ip), vehicle: distilled water + Tween-80) 98 % of control.
With `C=COC(=O)N(C)C`, the T/C reads like this: under setting [1], 99 % of control; under setting [2], 97 % of control.
Take `C=C1C(O)C2(O)OCC34C(CC5C(C)=CC(=O)C(O)C5(C)C23)OC(=O)C(OC(=O)C/C=C/CCCCCCCC)C14` (centres undefined): the T/C is 182 % of control (dose: 4.0 mg/kg/injection, schedule: Q01DX009 (ip), vehicle: saline + alcohol); 160 % of control (dose: 5.76 mg/kg/injection, schedule: Q01DX009 (ip), vehicle: saline + Tween-80 + alcohol); 182 % of control (dose: 8.0 mg/kg/injection, schedule: Q01DX009 (ip), vehicle: saline + alcohol); 197 % of control (dose: 9.6 mg/kg/injection, schedule: Q01DX009 (ip), vehicle: saline + Tween-80 + alcohol); 176 % of control (dose: 16.0 mg/kg/injection, schedule: Q01DX009 (ip), vehicle: saline + Tween-80 + alcohol); 192 % of control (dose: 16.0 mg/kg/injection, schedule: Q01DX009 (ip), vehicle: saline + alcohol).
`S=c1nc[nH]c2nc[nH]c12`: the T/C runs as follows: (dose: 6.25 mg/kg/injection, schedule: Q01DX009 (ip), vehicle: Klucel (hydroxypropylcellulose) (HPC)) 100 % of control; (dose: 7.5 mg/kg/injection, schedule: Q01DX009 (ip), vehicle: Klucel (hydroxypropylcellulose) (HPC)) 97 % of control; (dose: 12.5 mg/kg/injection, schedule: Q01DX009 (ip), vehicle: Klucel (hydroxypropylcellulose) (HPC)) 94 % of control; (dose: 25.0 mg/kg/injection, schedule: Q01DX009 (ip), vehicle: Klucel (hydroxypropylcellulose) (HPC)) 96 % of control.
On to `O=C1c2ccccc2C(Cl)(c2ccc(Cl)cc2)c2ccc(Cl)cc21` (centres undefined), for which the T/C under setting [3] is 114 % of control; the T/C (dose: 36.0 mg/kg/injection, schedule: Q01DX009 (ip), vehicle: saline with Tween-80) was 109 % of control; the T/C under setting [4] was 116 % of control and 120 % of control; the T/C (dose: 60.0 mg/kg/injection, schedule: Q01DX009 (ip), vehicle: saline with Tween-80) is 111 % of control; the T/C under setting [1] was 115 % of control and 107 % of control; the T/C (dose: 166.67 mg/kg/injection, schedule: Q01DX009 (ip), vehicle: saline with Tween-80) is 122 % of control. In addition, the T/C was 117 % of control under setting [2] and 103 % of control (dose: 277.78 mg/kg/injection, schedule: Q01DX009 (ip), vehicle: saline with Tween-80).
On to `C/C=C/c1cc2n(c1)C(=O)c1cc(OC3OC(C)C(NC)C(C)(O)C3O)c(C)c(O)c1NC2O` (centres undefined), for which the T/C reads like this: (dose: 0.25 micrograms/kg/injection, schedule: Q01DX009 (ip), vehicle: saline) 106 % of control; (dose: 2.0 micrograms/kg/injection, schedule: Q04DX003 (ip), vehicle: DMSO) 114 % of control.
Regarding `COc1cc2cc3c(c(O)c2c(O)c1/C=C/C(C)C)C(=O)CC(C)(OC(C)=O)C3` (centres undefined), the T/C was 98 % of control (dose: 0.62 mg/kg/injection, schedule: Q01DX009 (ip), vehicle: Klucel (hydroxypropylcellulose) (HPC)); 104 % of control (dose: 0.63 mg/kg/injection, schedule: Q01DX009 (ip), vehicle: Klucel (hydroxypropylcellulose) (HPC)); 109 % of control and 112 % of control (dose: 1.25 mg/kg/injection, schedule: Q01DX009 (ip), vehicle: Klucel (hydroxypropylcellulose) (HPC)); 115 % of control and 122 % of control (dose: 2.5 mg/kg/injection, schedule: Q01DX009 (ip), vehicle: Klucel (hydroxypropylcellulose) (HPC)); 100 % of control (dose: 10.0 mg/kg/injection, schedule: Q01DX009 (ip), vehicle: Klucel (hydroxypropylcellulose) (HPC)).
With `CC[C@@]1(O)C[C@H](OC2CC(N(C)C)C(OC3CC(O)C(O[C@@H]4O[C@@H](C)C(=O)C=C4N)C(C)O3)C(C)O2)c2c(cc3c(c2O)C(=O)c2c(O)ccc(O)c2C3=O)[C@H]1C(=O)OC` (some centres undefined), the T/C by setting is: (dose: 0.02 mg/kg/injection, schedule: Q01DX001 (ip), vehicle: suspension in saline) 102 % of control; (dose: 0.05 mg/kg/injection, schedule: Q01DX001 (ip), vehicle: suspension in saline) 111 % of control; (dose: 0.1 mg/kg/injection, schedule: Q01DX001 (ip), vehicle: suspension in saline) 111 % of control; (dose: 0.19 mg/kg/injection, schedule: Q01DX009 (ip), vehicle: saline) 121 % of control; (dose: 0.2 mg/kg/injection, schedule: Q01DX001 (ip), vehicle: suspension in saline) 116 % of control; (dose: 0.4 mg/kg/injection, schedule: Q01DX001 (ip), vehicle: suspension in saline) 121 % of control. Besides, the T/C reads like this: (dose: 0.75 mg/kg/injection, schedule: Q01DX009 (ip), vehicle: saline) 153 % of control; (dose: 0.8 mg/kg/injection, schedule: Q01DX001 (ip), vehicle: suspension in saline) 121 % of control; (dose: 1.5 mg/kg/injection, schedule: Q01DX009 (ip), vehicle: saline) 173 % of control; (dose: 3.0 mg/kg/injection, schedule: Q01DX009 (ip), vehicle: saline) 179 % of control; (dose: 3.2 mg/kg/injection, schedule: Q01DX001 (ip), vehicle: suspension in saline) 152 % of control.
With `CCCCCCCCSC1=C(Cl)C(=O)C(OC)=C(OC)C1=O`, the T/C was 100 % of control (dose: 1.56 mg/kg/injection, schedule: Q01DX009 (ip), vehicle: saline with Tween-80); 93 % of control (dose: 3.12 mg/kg/injection, schedule: Q01DX009 (ip), vehicle: saline with Tween-80); 89 % of control (dose: 6.25 mg/kg/injection, schedule: Q01DX009 (ip), vehicle: saline with Tween-80).
Turning to `Nc1ncnc2c1cnn2Cc1ccc(Cl)cc1`, the T/C reads like this: under setting [4], 107 % of control; under setting [1], 100 % of control.
As for `CC(Oc1ccccc1-c1ccccc1)C(=O)N(C)C` (centres undefined), the T/C reads like this: (dose: 12.5 mg/kg/injection, schedule: Q01DX009 (ip), vehicle: saline with Tween-80) 95 % of control; under setting [3], 100 % of control; under setting [4], 95 % of control; under setting [1], 98 % of control; under setting [2], 106 % of control; (dose: 400.0 mg/kg/injection, schedule: Q01DX009 (ip), vehicle: saline with Tween-80) 100 % of control.
`O=NN(CCF)C(=O)NC1CCC(=O)NC1=O` (centres undefined): the T/C was 192 % of control under setting [5]; 194 % of control (dose: 15.0 mg/kg/injection, schedule: Q01DX001 (ip), vehicle: saline); 235 % of control under setting [6]; 233 % of control under setting [7].
Consider `O=NN(CCF)C(=O)N[C@H]1CCCC[C@H]1O`, for which the T/C under setting [5] is 109 % of control, the T/C under setting [6] was 177 % of control and the T/C under setting [7] is 209 % of control.

(Values after PubChem BioAssay AID200 (DTP/NCI, 2004).)
